# Reference: patent US8912223B2, “Compositions and processes for preparing 5-amino or substituted amino 1,2,3-triazoles and triazoles orotate formulations” (priority 2013, dated 2014)
# Like-named read-outs stand apart in the source and are kept apart here.
# Columns and labels:
# [1] = Gastric lesions and toxicity in rodents; conditions: in vivo
# From the text: This may be related to the absence of use of toxic ingredients such as sodium azide or potassium azide.
# [2] = tested on: HT29 human colon tumor xenografts; experiment: Anticancer activity in s.c.-implanted HT29 human colon tumor xenografts; format: in vivo, mice; conditions: CTO 343 mg/kg/day, days 13-26; measured at 41 days; control 1436 mm^3; p=0.0050 vs control
# Protocol: The effect of CTO M.W. of 580.8 and CAI M.W. of 424.6+Orotic Acid M.W. of 156.1, was studied in s.c.-implanted HT29 human colon tumor xenografts in male, athymic NCr-n u/nu mice. 6 week old mice were implanted with HT29 fragments and 13 days later were sorted in […] groups of ten. For the next 14 days (13-26 days), Group 1 control (C) received the vehicle; Group 2=343 mg/kg/dose; Group 3=240 mg/kg/day CAI+103 mg/kg/day orotic acid. At 41 days, the mean tumor volume (mm^3) was measured as shown below: • Group 1 (Control)=1436 mm^3 • Group 2 (CTO343 mg/kg/day)=864 mm^3 (p=0.0050, Gr2 vs Gr 1) • Group 3 (CAI […]+Orotic Acid 103 mg/kg/day)=1268 mm^3 (p=0.2706,Gr 3 vs Gr 1). […] However, CAI+Orotic acid formulation did show some tumor inhibition.
# [3] = format: in vivo; conditions: dogs, PO, 175, 350, 1025 mg/kg/day, after 28 days
# [4] = Bioavailability of CTO given orally as solid in capsule or as liquid in PEG-400; CAI in plasma by HPLC/MS; format: in vivo, dogs; conditions: for Cmax / half-life: po; for Cmax: 685 mg/kg; for concentration at 1 h: measured as CAI, read-out: Plasma concentration after 1 hr
# Protocol: The bioavailability of CTO (base:acid, 0.7:1.3) was determined by administering a single dose 685 mg/kg by capsule (Group 1) or by oral gavage in PEG400 (Group 2). Two dogs (1F/1M) were used in each group. Blood samples were collected at 0, 1, 2, 4, 8, 12, 24, 48, 72, and 92 hours. CAI was measured by HPLC/MS.
# [5] = CTO concentration (as CAI) in brain tissue after oral dosing; format: in vivo, mice; conditions: mouse, eight hours after treatment, read-out: CAI levels in brain tissue
# Protocol: CTO was given orally (in PEG400) to six week old mice sorted in two Groups of 6. Two doses were administered-Group 1=513 mg/kg; Group 2=342 mg/kg. Eight hours after treatment with CTO, the mice were euthanized for measurement of CTO concentration (as CAI) in brain tissue.
# [6] = tested on: Dunning R-3227-AT-1 prostate cancer model; conditions: rats; compared with equivalent dose of L651582; U.S. Pat. No. 5,912,346; cited from earlier work
smiles,measurement,setting,value
"NC(=O)c1nnn(Cc2cc(Cl)c(C(=O)c3ccc(Cl)cc3)c(Cl)c2)c1N [CAI, 5-Amino-1-(4-(4-chlorobenzoyl)-3,5-dichlorobenzyl)-1,2,3-triazole-4-carboxamide]",gastric lesions and toxicity,[1],less gastric lesions and toxicity
"NC(=O)c1nnn(Cc2cc(Cl)c(C(=O)c3ccc(Cl)cc3)c(Cl)c2)c1N [CTO, 5-Amino-1-(4-(4-chlorobenzoyl)-3,5-dichlorobenzyl)-1,2,3-triazole-4-carboxamide, compound with orotic acid]",mean tumor volume,[2],864 mm^3
same,deaths,[3],no deaths occurred
same,bioavailability,"[4]; both sexes, dog, plasma, oral gavage in PEG400, single dose 685 mg/kg, dogs, read-out: Bioavailability relative to Group 1 (capsule, 100%)",81.8%
same,AUC,"[4]; capsule, single dose 685 mg/kg, female dog",277 µg/mL
same,AUC,"[4]; capsule, single dose 685 mg/kg, male dog",326 µg/mL
same,Cmax,"[4]; female, dog, plasma, capsule, single dose 685 mg/kg, female dog",7950 ng/mL
same,Cmax,"[4]; female, dog, plasma, oral gavage in PEG400, single dose 685 mg/kg, female dog",5350 ng/mL
same,Cmax,"[4]; male, dog, plasma, capsule, single dose 685 mg/kg, male dog",5800 ng/mL
same,Cmax,"[4]; male, dog, plasma, oral gavage in PEG400, single dose 685 mg/kg, male dog",6630 ng/mL
same,concentration at 1 h,"[4]; plasma, oral, capsule, single dose 685 mg/kg, female dog",174 ng/mL
same,concentration at 1 h,"[4]; plasma, oral, capsule, single dose 685 mg/kg, male dog",155 ng/mL
same,half-life,"[4]; plasma, capsule, single dose 685 mg/kg, female dog",22.7 h
same,half-life,"[4]; plasma, capsule, single dose 685 mg/kg, male dog",18 h
same,concentration at 1 h,"[4]; plasma, oral gavage in PEG400, single dose 685 mg/kg, female dog",570 ng/mL
same,concentration at 1 h,"[4]; plasma, oral gavage in PEG400, single dose 685 mg/kg, male dog",511 ng/mL
same,concentration at 8 h,"[5]; CTO 342 mg/kg orally in PEG400, mice",11000 ± 1700 ng/g
same,concentration at 8 h,"[5]; CTO 513 mg/kg orally in PEG400, mice",15200 ± 2370 ng/g
NC(=O)c1nnn(Cc2cc(Cl)c(C(=O)c3ccc(Cl)cc3)c(Cl)c2)c1N.O=C(O)c1cc(=O)[nH]c(=O)[nH]1 [L651582 Orotate],antitumor activity,[6],improved antitumor activity
